Assays:
[1] = system: Smad2/Smad3 phosphorylation; test: Phospho-Smad2/3 Inhibition Assay (western blot), Panc-1; format: cell-based, human; details: at 10 μM, Panc-1 pancreatic cancer cell line; starred symbols = activation
Procedure, shortened: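 Panc-1 cells (KRas G12D), starved overnight in 0.5% FBS, treated 3 h at 37° C with compound at 10 μM final (0.3% DMSO) or serial dilutions for IC50, then stimulated with 10 ng/ml TGF-b1 for 1 h. Phospho-Smad2 (Ser465/467) and phospho-Smad3 (Ser423/425) detected by western blot.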

KRas wild type = test: Ras GTP Binding Domain Inhibition Assay (Ras Superfamily Assay); details: 20 μM compound; for KRas wild type + SOS: % inh.: with SOS; for KRas wild type: % inh.: without SOS
Procedure, shortened: (§1)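 His-tagged GTPases immobilised on nickel-coated plates, pre-incubated with compound (20 μM single point, or serial dilution for IC50) 3 h at room temperature, with or without 10-30 μg/mL Sos (residues 556-1049) in the final hour. Bound Cy3- or Cy5-GTP (100 nM, 45 min) measured by fluorescence after washing.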

KRas G12D mutant = test: as above; details: 20 μM compound; for KRas G12D mutant + SOS: % inh.: with SOS; for KRas G12D mutant: % inh.: without SOS
Procedure, shortened: as §1

Rac-1 = target: T1, Rac-1 (Homo sapiens, UniProt P63000); test: as above; details: read-out: Rac-1: % inh.
T1 construct: made in house
Procedure, shortened: as §1

TNF-alpha = TNF-alpha Quantification Assay (ELISA), LPS-stimulated RAW 264.7; format: cell-based; details: Mus musculus, RAW264.7; at 10 μM; read-out: TNFα: % inh.

Row | SMILES | KRas wild type + SOS: % inh. (KRas wild type) | KRas wild type: % inh. (KRas wild type) | KRas G12D mutant + SOS: % inh. (KRas G12D mutant) | KRas G12D mutant: % inh. (KRas G12D mutant) | inhibition at 20 µM (Rac-1) [%] | % inh of Smad2/3 phosphorylation in Panc-1 [1] | inhibition at 10 µM (TNF-alpha) [%]
1 | Cc1c(-c2ccn(C3CC3)n2)cn2nc(-c3nccn3C)nc(Nc3cc(OC(F)(F)F)ccn3)c12 [Compound 138, 6-(1-Cyclopropyl-1H-pyrazol-3-yl)-5-methyl-2-(1-methyl-1H-imidazol-2-yl)-N-(4-(trifluoromethoxy)pyridin-2-yl)pyrrolo[2,1-f][1,2,4]triazin-4-amine] | D (D = 76-100% inhibition) | C (C = 50-75% inhibition) | D (D = 76-100% inhibition) | D (D = 76-100% inhibition) | 50 to 75 | A* (A* = 1-25% activation) | 0
2 | Cc1c(-c2ccn(C3CC3)n2)cn2nc(-c3nccn3C)nc(Nc3cc(OCCO)ccn3)c12 [Compound 146, 2-((2-((6-(1-Cyclopropyl-1H-pyrazol-3-yl)-5-methyl-2-(1-methyl-1H-imidazol-2-yl)pyrrolo[2,1-f][1,2,4]triazin-4-yl)amino)pyridin-4-yl)oxy)ethan-1-ol] | D (D = 76-100% inhibition) | D (D = 76-100% inhibition) | D (D = 76-100% inhibition) | D (D = 76-100% inhibition) | 76 to 100 | C (C = 46-75% inhibition) | 1 to 24
3 | Cc1c(-c2ccn(C)n2)cn2nc(-c3nccn3C)nc(Nc3cc(OC(F)F)ccn3)c12 [Compound 128, N-(4-(Difluoromethoxy)pyridin-2-yl)-5-methyl-2-(1-methyl-1H-imidazol-2-yl)-6-(1-methyl-1H-pyrazol-3-yl)pyrrolo[2,1-f][1,2,4]triazin-4-amine] | D (D = 76-100% inhibition) | D (D = 76-100% inhibition) | D (D = 76-100% inhibition) | D (D = 76-100% inhibition) | 76 to 100 | A (A = 1-25% inhibition) | 25 to 49
4 | Cc1c(-c2ccn(C3CC3)n2)cn2nc(-c3nccn3C)nc(Nc3cc(OCC(F)(F)F)ccn3)c12 [Compound 140, 6-(1-Cyclopropyl-1H-pyrazol-3-yl)-5-methyl-2-(1-methyl-1H-imidazol-2-yl)-N-(4-(2,2,2-trifluoroethoxy)pyridin-2-yl)pyrrolo[2,1-f][1,2,4]triazin-4-amine] | C (C = 50-75% inhibition) | C (C = 50-75% inhibition) | D (D = 76-100% inhibition) | C (C = 50-75% inhibition) | 76 to 100 | A (A = 1-25% inhibition) | 0
5 | Cc1c(-c2ccn(C)n2)cn2nc(-c3nccn3C)nc(Nc3n[nH]c(C4CC4)n3)c12 [Compound 113, N-(5-Cyclopropyl-1H-1,2,4-triazol-3-yl)-5-methyl-2-(1-methyl-1H-imidazol-2-yl)-6-(1-methyl-1H-pyrazol-3-yl)pyrrolo[2,1-f][1,2,4]triazin-4-amine] | D (D = 76-100% inhibition) | C (C = 50-75% inhibition) | D (D = 76-100% inhibition) | D (D = 76-100% inhibition) | 76 to 100 | D* (D* = 76-100% activation) | 25 to 49
6 | COc1ccnc(Nc2nc(-c3nccn3C)nn3cc(-c4cccnc4)c(C)c23)c1 [Compound 157, N-(4-Methoxy-pyridin-2-yl)-5-methyl-2-(1-methyl-1H-imidazol-2-yl)-6-(pyridin-3-yl)pyrrolo[2,1-f][1,2,4]triazin-4-amine] | D (D = 76-100% inhibition) | D (D = 76-100% inhibition) | D (D = 76-100% inhibition) | D (D = 76-100% inhibition) | 76 to 100 | B* (B* = 26-45% activation) | 0
7 | Cc1c(-c2ccn(C)n2)cn2nc(-c3nccn3C)nc(Nc3ccncn3)c12.Cl [Compound 116, 5-Methyl-2-(1-methyl-1H-imidazol-2-yl)-6-(1-methyl-1H-pyrazol-3-yl)-N-(pyrimidin-4-yl)pyrrolo[2,1-f][1,2,4]triazin-4-amine hydrochloride salt] | D (D = 76-100% inhibition) | C (C = 50-75% inhibition) | C (C = 50-75% inhibition) | C (C = 50-75% inhibition) | 50 to 75 | D (D = 76-100% inhibition) | 0
8 | COc1ccnc(Nc2nc(-c3nccn3C)nn3cc(-c4ccn(C5CC5)n4)c(C)c23)c1 [Compound 137, 6-(1-Cyclopropyl-1H-pyrazol-3-yl)-N-(4-methoxypyridin-2-yl)-5-methyl-2-(1-methyl-1H-imidazol-2-yl)pyrrolo[2,1-f][1,2,4]triazin-4-amine] | B (B = 26-49% inhibition) | C (C = 50-75% inhibition) | B (B = 26-49% inhibition) | C (C = 50-75% inhibition) | 50 to 75 | C (C = 46-75% inhibition) | 1 to 24

Now from value to compound, other results behind:

Row | KRas wild type + SOS: % inh. (KRas wild type) | KRas wild type: % inh. (KRas wild type) | KRas G12D mutant + SOS: % inh. (KRas G12D mutant) | KRas G12D mutant: % inh. (KRas G12D mutant) | inhibition at 20 µM (Rac-1) [%] | SMILES | % inh of Smad2/3 phosphorylation in Panc-1 [1] | inhibition at 10 µM (TNF-alpha) [%]
9 | D (D = 76-100% inhibition) | C (C = 50-75% inhibition) | D (D = 76-100% inhibition) | D (D = 76-100% inhibition) | 76 to 100 | Cc1c(-c2ccn(C)n2)cn2nc(-c3nccn3C)nc(Nc3cc(OC(C)C)ccn3)c12 [Compound 136, N-(4-Isopropoxypyridin-2-yl)-5-methyl-2-(1-methyl-1H-imidazol-2-yl)-6-(1-methyl-1H-pyrazol-3-yl)pyrrolo[2,1-f][1,2,4]triazin-4-amine] | A (A = 1-25% inhibition) | 1 to 24
10 | C (C = 50-75% inhibition) | B (B = 26-49% inhibition) | B (B = 26-49% inhibition) | C (C = 50-75% inhibition) | 50 to 75 | COc1cnc(Nc2nc(-c3nccn3C)nn3cc(-c4ccn(C)n4)c(C)c23)cn1 [Compound 110, N-(5-Methoxypyrazin-2-yl)-5-methyl-2-(1-methyl-1H-imidazol-2-yl)-6-(1-methyl-1H-pyrazol-3-yl)pyrrolo[2,1-f][1,2,4]triazin-4-amine] | A* (A* = 1-25% activation) | 1 to 24
11 | C (C = 50-75% inhibition) | D (D = 76-100% inhibition) | C (C = 50-75% inhibition) | D (D = 76-100% inhibition) | 50 to 75 | COc1cc(Nc2nc(-c3nccn3C)nn3cc(-c4ccn(C(C)C)n4)c(C)c23)ncn1 [Compound 6, 6-(1-Isopropyl-1H-pyrazol-3-yl)-N-(6-methoxypyrimidin-4-yl)-5-methyl-2-(1-methyl-1H-imidazol-2-yl)pyrrolo[2,1-f][1,2,4]triazin-4-amine] | 0 (0 = 0% inhibition) | 25 to 49
12 | D (D = 76-100% inhibition) | D (D = 76-100% inhibition) | D (D = 76-100% inhibition) | D (D = 76-100% inhibition) | 76 to 100 | Cc1c(-c2ccn(C(C)C)n2)cn2nc(-c3nccn3C)nc(Nc3cc(OCCO)ncn3)c12 [Compound 97, 2-((6-((6-(1-Isopropyl-1H-pyrazol-3-yl)-5-methyl-2-(1-methyl-1H-imidazol-2-yl)pyrrolo[2,1-f][1,2,4]triazin-4-yl)amino)pyrimidin-4-yl)oxy) ethan-1-ol] | D (D = 76-100% inhibition) | 0
13 | D (D = 76-100% inhibition) | D (D = 76-100% inhibition) | D (D = 76-100% inhibition) | D (D = 76-100% inhibition) | 50 to 75 | COc1ccnc(Nc2nc(-c3nccn3C)nn3cc(-c4cnn(C(C)C)c4)c(C)c23)c1 [Compound 165, 6-(1-Isopropyl-1H-pyrazol-4-yl)-N-(4-methoxypyridin-2-yl)-5-methyl-2-(1-methyl-1H-imidazol-2-yl)pyrrolo[2,1-f][1,2,4]triazin-4-amine] | B* (B* = 26-45% activation) | 1 to 24
14 | D (D = 76-100% inhibition) | D (D = 76-100% inhibition) | D (D = 76-100% inhibition) | D (D = 76-100% inhibition) | 76 to 100 | COc1cc(Nc2nc(-c3nccn3C)nn3cc(-c4ccn(C5CC5)n4)c(C)c23)ncn1 [Compound 135, 6-(1-Cyclopropyl-1H-pyrazol-3-yl)-N-(6-methoxypyrimidin-4-yl)-5-methyl-2-(1-methyl-1H-imidazol-2-yl)pyrrolo[2,1-f][1,2,4]triazin-4-amine] | A* (A* = 1-25% activation) | 1 to 24

— patent US12459951B2, “Compounds that interact with RAS superfamily proteins for treatment of cancers, inflammatory diseases, rasopathies, and fibrotic disease” (SHY Therapeutics, LLC, priority 2022, dated 2025)
